The text below walks through data of ChEMBL document CHEMBL1146644, “High-throughput identification of fucosyltransferase inhibitors using carbohydrate microarrays” (Bioorg Med Chem Lett, 2004).

Test [1] has as its target T1, 4-galactosyl-N-acetylglucosaminide 3-alpha-L-fucosyltransferase FUT6 (Homo sapiens, UniProt P51993).
T1 sequence (P51993 whole entry): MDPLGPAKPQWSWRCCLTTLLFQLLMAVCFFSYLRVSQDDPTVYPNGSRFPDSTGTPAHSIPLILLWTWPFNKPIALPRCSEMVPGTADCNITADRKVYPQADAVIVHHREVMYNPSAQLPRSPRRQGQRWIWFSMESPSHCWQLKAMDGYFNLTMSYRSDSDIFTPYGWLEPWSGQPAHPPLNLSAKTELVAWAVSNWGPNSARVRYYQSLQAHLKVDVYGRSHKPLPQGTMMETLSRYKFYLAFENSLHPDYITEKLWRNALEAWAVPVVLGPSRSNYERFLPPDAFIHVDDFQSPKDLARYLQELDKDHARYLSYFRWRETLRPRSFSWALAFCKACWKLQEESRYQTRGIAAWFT
Description: Inhibitory concentration required against Fucosyltransferase 6.

Test [2] concerns the target T1, 4-galactosyl-N-acetylglucosaminide 3-alpha-L-fucosyltransferase FUT6. Briefly: Compound was tested for binding affinity against Fucosyltransferase 6.

The term IC50 denotes the concentration needed to halve the response being measured. In general, Ki refers to the equilibrium dissociation constant of an inhibitor or competing ligand from its target. For the compound `Nc1nc(O)c2ncn(C3O[C@H](COP(=O)(O)OP(=O)(O)OCc4cn(CCCCC(=O)NC(Cc5ccccc5)c5ccccc5)nn4)[C@@H](O)[C@H]3O)c2n1` (stereo not given in full), it took 1.39 µM to reach half-maximal inhibition in test [1] (IC50). The same compound gave a Ki in test [2] of 0.376 µM.
In turn, `Nc1nc2c(ncn2C2O[C@H](COP(=O)(O)OP(=O)(O)OCc3cn(CCCC(=O)NC(Cc4ccccc4)c4ccccc4)nn3)[C@@H](O)[C@H]2O)c(=O)[nH]1` (stereo not given in full) showed an IC50 in test [1] of 3.96 µM. This compound gave an inhibitory constant (Ki) in test [2] of 1.07 µM.
On the same counts, the results for `Nc1nc(O)c2ncn(C3O[C@H](COP(=O)(O)OP(=O)(O)OCc4cn(CC(=O)NC(Cc5ccccc5)c5ccccc5)nn4)[C@@H](O)[C@H]3O)c2n1` (stereo not given in full) are 1.62 µM and 0.437 µM.
On the same counts, the results for `Nc1nc2c(ncn2C2O[C@H](COP(=O)(O)OP(=O)(O)OCc3cn(CCC(=O)NCc4cccc5ccccc45)nn3)[C@@H](O)[C@H]2O)c(=O)[nH]1` (stereo not given in full) are 3.34 µM and 0.901 µM.
`Nc1nc(O)c2ncn(C3O[C@H](COP(=O)(O)OP(=O)(O)OCc4cn(CCCCC(=O)NC5=CC6C(=O)c7ccccc7C(=O)C6C=C5)nn4)[C@@H](O)[C@H]3O)c2n1` (stereo not given in full): half-maximal inhibition in test [1] (IC50) required 1.89 µM. The inhibition constant (Ki) in test [2] was found to be 0.511 µM.
